Values of other authors in US20240252511A1, “METHODS OF TREATING DEPRESSION AND ANXIETY” (Woolsey Pharmaceuticals, Inc., priority 2021, published 2024).

Conditions: in vivo; 1 hydroxy (M3) metabolite

- half-life: about 8 hours
SMILES: O=S(=O)(c1cccc2c(O)nccc12)N1CCCNCC1 [M3, hydroxyfasudil]
